Laboratory results as given in article PMC12689647, “Evaluation of bromadiolone combined with ciprofloxacin, vitamin D, aspirin, and cinnamon as an apoptosis-mediated rodenticide strategy” (Scientific Reports, 2025).
Read-outs that look alike come from different tables or passages of the source.

Experiments:
[1] = test system: male wild rats of Rattus norvegicus; assay type: in vivo; conditions: oral; for Mortality% / Dead: one week; for Linear probit / Linear response %: probit fit; for Dead: 8 treated
Method: An approximate LD₅₀ was initially determined as a pilot study using the staircase method. Seventy adult male rats weighing 150–200 g were randomized and divided into ten groups (n = 10 × 7). Group I served as the control, while groups II, III, IV, V, VI, VII, VIII, IX, and X were treated orally with the following doses of bromadiolone, respectively: 0.3, 0.6, 0.9, 1.1, 1.2, 1.4, 1.8, 2.2, and 2.8 mg/kg b.w. The animals were observed during the first 2 h and then at 6 and 24 h for any toxic symptoms. Time to death and mortality were recorded over four days following administration. After one week, the LD₅₀ value was determined using probit analysis as described in[27].

liver DNA = assay type: in vivo, Rattus norvegicus; conditions: oral, 21 days
Method: (§1) Adult male rats (n = 7 × 9 = 63), weighing 150–200 g, were randomized and divided into seven groups. Group I served as the control. Group II received the vehicle control (0.1 ml/100 g ethanol). Group III was treated with bromadiolone (B) at ½ LD₅₀ (0.8 mg/kg)[28]. Group IV received bromadiolone (0.8 mg/kg) + ciprofloxacin (Anti.20 mg/kg)[29]. Group V received bromadiolone (0.8 mg/kg) + ciprofloxacin (20 mg/kg) + vitamin D (Vit. D 35 mg/kg)[30]. Group VI received bromadiolone (0.8 mg/kg) + ciprofloxacin (20 mg/kg) + vitamin D (35 mg/kg) + cinnamon (Cin. 2 g/kg)[31]. Group VII received bromadiolone (0.8 mg/kg) + ciprofloxacin (20 mg/kg) + vitamin D (35 mg/kg) + aspirin (A. 150 mg/kg)[32]. All doses were administered orally to wild rats over 21 days. The chemical we used for the euthanizing process: rats were narcotized by Ketamine + xylazine injection (IP) and then sacrificed by slaughtering.
For the coated slides, 100 µL of cell suspension was mixed with 600 µL of low-melting agarose (0.8% in PBS). The coated slides were immersed for 15 min in a lysis solution containing 2.5% sodium dodecyl sulfate (SDS) and 0.045 M Tris-borate-EDTA (TBE) buffer at pH 8.4. The slides were then placed in an electrophoresis chamber filled with TBE buffer without SDS. Electrophoresis was conducted at 100 mA for two minutes at 2 V/cm. Staining was performed at 4 °C using 20 µg/mL ethidium bromide (EtBr). EtBr-stained DNA was visualized using a fluorescent microscope with a 40× objective and an excitation filter of 420–490 nm to detect DNA damage. Qualitative and quantitative assessments of tail length, tail moment, olive tail moment, and percentage of DNA in the head were determined using OpenComet software to evaluate five images.

liver cells = test: Apoptosis estimation by acridine orange fluorescence staining; assay type: in vivo, Rattus norvegicus; conditions: AO staining, oral, 21 days
Method: as §1
Before staining with 0.01% acridine orange (AO) (stock solution: 0.1% AO in distilled water, diluted with phosphate buffer to a staining solution at pH 7.2), the sample was quickly passed through a graded alcohol series (80 − 50%) followed by distilled water. […] Acridine orange emits sharp green fluorescence when bound to DNA (apoptosis).

[2] = test system: male wild rats of Rattus norvegicus; assay type: in vivo; conditions: oral, 8 treated, one week
[3] = test system: male wild rats of Rattus norvegicus; assay type: in vivo; conditions: oral
[4] = male wild rats, probit analysis software

**Q.** With `O=c1oc2ccccc2c(O)c1C(CC(O)c1ccc(-c2ccc(Br)cc2)cc1)c1ccccc1` (centres unmarked) [Bromadiolone] as the molecule, how does the Mortality% ([1]; dose 0.3 mg/kg b.w.) read?
**A.** 12.5%

**Q.** And the Observed response % ([1]; dose 0.3 mg/kg b.w., probit analysis)?
**A.** 14.286%

**Q.** And the Linear probit ([1]; dose 0.3 mg/kg b.w.)?
**A.** 3.6051

**Q.** What about the Linear response % ([1]; dose 0.3 mg/kg b.w.) of the same molecule?
**A.** 8.159%

**Q.** What about the Mortality% ([1]; dose 0.6 mg/kg b.w.) of the same molecule?
**A.** 25%

**Q.** And the Observed response % ([1]; dose 0.6 mg/kg b.w., probit analysis)?
**A.** 14.286%

**Q.** And the Linear probit ([1]; dose 0.6 mg/kg b.w.)?
**A.** 4.1699

**Q.** And the Linear response % ([1]; dose 0.6 mg/kg b.w.)?
**A.** 20.3258%

**Q.** And the Dead ([1]; dose 0.9 mg/kg b.w.)?
**A.** 3

**Q.** And the Mortality% ([1]; dose 0.9 mg/kg b.w.)?
**A.** 37.5%

**Q.** What about the Observed response % ([1]; dose 0.9 mg/kg b.w., probit analysis) of the same molecule?
**A.** 28.571%

**Q.** And the Linear probit ([1]; dose 0.9 mg/kg b.w.)?
**A.** 4.5

**Q.** What about the Linear response % ([1]; dose 0.9 mg/kg b.w.) of the same molecule?
**A.** 30.855%

**Q.** And the Dead ([1]; dose 1.1 mg/kg b.w.)?
**A.** 3

**Q.** What about the Mortality% ([1]; dose 1.1 mg/kg b.w.) of the same molecule?
**A.** 37.5%

**Q.** And the Observed response % ([1]; dose 1.1 mg/kg b.w., probit analysis)?
**A.** 28.571%

**Q.** And the Linear probit ([1]; dose 1.1 mg/kg b.w.)?
**A.** 4.6635

**Q.** And the Linear response % ([1]; dose 1.1 mg/kg b.w.)?
**A.** 36.8278%

**Q.** And the Dead ([1]; dose 1.2 mg/kg b.w.)?
**A.** 4

**Q.** What about the Mortality% ([1]; dose 1.2 mg/kg b.w.) of the same molecule?
**A.** 50%

**Q.** What about the Observed response % ([1]; dose 1.2 mg/kg b.w., probit analysis) of the same molecule?
**A.** 42.857%

**Q.** And the Linear probit ([1]; dose 1.2 mg/kg b.w.)?
**A.** 4.7344

**Q.** What about the Linear response % ([1]; dose 1.2 mg/kg b.w.) of the same molecule?
**A.** 39.5276%

**Q.** And the Dead ([1]; dose 1.4 mg/kg b.w.)?
**A.** 4

**Q.** What about the Mortality% ([1]; dose 1.4 mg/kg b.w.) of the same molecule?
**A.** 50%

**Q.** What about the Observed response % ([1]; dose 1.4 mg/kg b.w., probit analysis) of the same molecule?
**A.** 42.857%

**Q.** What about the Linear probit ([1]; dose 1.4 mg/kg b.w.) of the same molecule?
**A.** 4.8599

**Q.** And the Linear response % ([1]; dose 1.4 mg/kg b.w.)?
**A.** 44.4304%

**Q.** What about the Dead ([1]; dose 1.8 mg/kg b.w.) of the same molecule?
**A.** 5

**Q.** And the Mortality% ([1]; dose 1.8 mg/kg b.w.)?
**A.** 62.5%

**Q.** What about the Observed response % ([1]; dose 1.8 mg/kg b.w., probit analysis) of the same molecule?
**A.** 57.143%

**Q.** What about the Linear probit ([1]; dose 1.8 mg/kg b.w.) of the same molecule?
**A.** 5.0647

**Q.** And the Linear response % ([1]; dose 1.8 mg/kg b.w.)?
**A.** 52.578%

**Q.** What about the Mortality% ([1]; dose 2.2 mg/kg b.w.) of the same molecule?
**A.** 62.5%

**Q.** What about the Observed response % ([1]; dose 2.2 mg/kg b.w., probit analysis) of the same molecule?
**A.** 57.143%

**Q.** What about the Linear probit ([1]; dose 2.2 mg/kg b.w.) of the same molecule?
**A.** 5.2281

**Q.** What about the Linear response % ([1]; dose 2.2 mg/kg b.w.) of the same molecule?
**A.** 59.022%

**Q.** And the Dead ([1]; dose 2.8 mg/kg b.w.)?
**A.** 8

**Q.** And the Mortality% ([1]; dose 2.8 mg/kg b.w.)?
**A.** 100%

**Q.** What about the Observed response % ([1]; dose 2.8 mg/kg b.w., probit analysis) of the same molecule?
**A.** 71.429%

**Q.** What about the Linear probit ([1]; dose 2.8 mg/kg b.w.) of the same molecule?
**A.** 5.4246

**Q.** And the Linear response % ([1]; dose 2.8 mg/kg b.w.)?
**A.** 66.4427%

**Q.** What about the LD25 [1, 4] of the same molecule?
**A.** 0.7264 mg/kg

**Q.** And the LD50 [1, 4]?
**A.** 1.6626 mg/kg

**Q.** And the LD75 [1, 4]?
**A.** 3.8056 mg/kg

**Q.** And the LD90 [1, 4]?
**A.** 8.0187 mg/kg

**Q.** And the LD95 [1, 4]?
**A.** 12.5257 mg/kg

**Q.** And the LD99 [1, 4]?
**A.** 28.9136 mg/kg

**Q.** And the “LT25, Time” value [1, 4]?
**A.** 2.187 days

**Q.** What about the “LT50, Time” value [1, 4] of the same molecule?
**A.** 4.03 days

**Q.** And the “LT75, Time” value [1, 4]?
**A.** 7.426 days

**Q.** And the “LT90, Time” value [1, 4]?
**A.** 12.87 days

**Q.** What about the “LT95, Time” value [1, 4] of the same molecule?
**A.** 17.89 days

**Q.** And the “LT99, Time” value [1, 4]?
**A.** 33.17 days

**Q.** And the LD50 ([1]; male wild rats, probit analysis software, listed as bromadiolone)?
**A.** 1.6 mg/kg

**Q.** What about the Observed response % ([1]; time 1 day) of the same molecule?
**A.** 12.5%

**Q.** And the Linear probit ([1]; time 1 day)?
**A.** 3.4617

**Q.** What about the Linear response % ([1]; time 1 day) of the same molecule?
**A.** 6.209%

**Q.** And the Observed response % ([1]; time 2 days)?
**A.** 12.5%

**Q.** And the Linear probit ([1]; time 2 days)?
**A.** 4.2266

**Q.** And the Linear response % ([1]; time 2 days)?
**A.** 21.9652%

**Q.** What about the Observed response % ([1]; time 3 days) of the same molecule?
**A.** 37.5%

**Q.** And the Linear probit ([1]; time 3 days)?
**A.** 4.6741

**Q.** What about the Linear response % ([1]; time 3 days) of the same molecule?
**A.** 37.2284%

**Q.** And the Observed response % ([1]; time 4 days)?
**A.** 50%

**Q.** And the Linear probit ([1]; time 4 days)?
**A.** 4.9918

**Q.** And the Linear response % ([1]; time 4 days)?
**A.** 49.6729%

**Q.** What about the Linear probit ([1]; time 5 days) of the same molecule?
**A.** 5.2381

**Q.** What about the Linear response % ([1]; time 5 days) of the same molecule?
**A.** 59.4089%

**Q.** What about the Observed response % ([1]; time 7 days) of the same molecule?
**A.** 87.5%

**Q.** What about the Linear probit ([1]; time 7 days) of the same molecule?
**A.** 5.6093

**Q.** What about the Linear response % ([1]; time 7 days) of the same molecule?
**A.** 72.8843%

**Q.** What about the “degree of liver DNA damage by comet assay” value (liver DNA; liver comet assay photomicrographs) of the same molecule?
**A.** moderate amount of damaged DNA

**Q.** And the “increase in olive tail moment (OTM) compared to the control” value (liver DNA; liver comet assay)?
**A.** 710.02%

**Q.** What about the “increase in tail DNA% (T.DNA%) compared to the control” value (liver DNA; liver comet assay) of the same molecule?
**A.** 222.35%

**Q.** What about the “increase in tail length (TL) compared to the control” value (liver DNA; liver comet assay) of the same molecule?
**A.** 155.04%

**Q.** What about the “increase in tail moment (TM) compared to the control” value (liver DNA; liver comet assay) of the same molecule?
**A.** 506.09%

**Q.** What about the “decrease in normal cells compared to the control” value (liver cells) of the same molecule?
**A.** 18.66%

**Q.** And the “increase in apoptotic cells compared to the control” value (liver cells)?
**A.** 109.72%

**Q.** What about the Dead ([2]; dose 0.3 mg/kg b.w.) of the same molecule?
**A.** 1

**Q.** And the Dead ([2]; dose 0.6 mg/kg b.w.)?
**A.** 2

**Q.** And the Dead ([2]; dose 2.2 mg/kg b.w.)?
**A.** 5

**Q.** What about the Observed response % ([3]; time 5 days) of the same molecule?
**A.** 50%

**Q.** And the Observed response % ([3]; time 6 days)?
**A.** 62.5%

**Q.** What about the Linear probit ([3]; time 6 days, probit fit) of the same molecule?
**A.** 5.4393

**Q.** And the Linear response % ([3]; time 6 days, probit fit)?
**A.** 66.9788%
